Experiments:
[1] = molecular target: T1, human muscarinic acetylcholine M3 receptor (M3-ACh) (Homo sapiens, UniProt P20309); assay: Muscarinic 3 Receptor Binding Assay ([3H]NMS competition, SPA); details: [3H]NMS 0.1 nM, CHO-K1 cell membranes, 16 hours at room temperature; read-out: M3 pIC50 (converted)
T1 construct: expressed in transfected cells; host or cells: CHO-K1 (Chinese Hamster Ovary) cell membranes
Summary of the method: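 Competition SPA binding of 0.1 nM [3H]NMS (quarter Kd) to membranes from CHO-K1 cells expressing human M3, in 20 mM HEPES pH 7.4, 5 mM MgCl2, 1% DMSO. Incubated 16 h at room temperature; non-specific binding with 1 µM atropine. pIC50 from 50% reduction of specific binding.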

[2] = molecular target: T2, Adrenergic β2 (H292 cells) (Homo sapiens, UniProt P07550); assay: Adrenergic β2 Mediated cAMP Production, single concentration 1 μM; format: cell-based; details: NCI-H292, 1 μM compound, percentage of the maximum response generated by 1E-07M formoterol, read-out: β2 (% effect at 1 μM)
T2 construct: endogenous in cells; host or cells: H292 cells
Summary of the method: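 H292 cells were plated overnight, pre-treated with 300 μM rolipram for 10 min, then exposed to compound at 1 μM final (1% DMSO) for 60 min at room temperature. cAMP in the lysates was measured by AlphaScreen against a standard curve and expressed as % of the maximal response to 1E-07M formoterol.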

[3] = molecular target: T1, human muscarinic acetylcholine M3 receptor (M3-ACh); assay: Muscarinic 3 Receptor Binding Assay, % inhibition specific binding at 1 μM; details: 1 μM compound, % inhibition specific [3H]-NMS binding
Summary of the method: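 Competition binding of 0.1 nM [3H]NMS to membranes from CHO-K1 cells expressing human M3, SPA format, with compound at 1 μM in 20 mM HEPES pH 7.4, 5 mM MgCl2, 1% DMSO. Incubated 16 h at room temperature; non-specific binding defined by 1 μM atropine; value is % inhibition of specific binding.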

[4] = molecular target: T2, Adrenergic β2 (H292 cells); assay: Assay for Adrenergic β2 Mediated cAMP Production (concentration response, AlphaScreen cAMP detection); format: cell-based; details: for EC50: cAMP production, 60 minutes at room temperature, 300 μM rolipram, read-out: β2 pEC50 (converted); for β2 Intrinsic activity: fraction relative to the maximum activity determined for formoterol
Summary of the method: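 H292 cells plated overnight, pre-treated with rolipram (300 μM final) 10 min, then compound 60 min at room temperature in HBSS/10 mM HEPES pH7.4/5 mM glucose, 1% DMSO. Lysate cAMP read by AlphaScreen against a cAMP standard curve; 4-parameter fit gives pEC50 and intrinsic activity as fraction of formoterol maximum.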

T2 sequence (P07550 whole entry): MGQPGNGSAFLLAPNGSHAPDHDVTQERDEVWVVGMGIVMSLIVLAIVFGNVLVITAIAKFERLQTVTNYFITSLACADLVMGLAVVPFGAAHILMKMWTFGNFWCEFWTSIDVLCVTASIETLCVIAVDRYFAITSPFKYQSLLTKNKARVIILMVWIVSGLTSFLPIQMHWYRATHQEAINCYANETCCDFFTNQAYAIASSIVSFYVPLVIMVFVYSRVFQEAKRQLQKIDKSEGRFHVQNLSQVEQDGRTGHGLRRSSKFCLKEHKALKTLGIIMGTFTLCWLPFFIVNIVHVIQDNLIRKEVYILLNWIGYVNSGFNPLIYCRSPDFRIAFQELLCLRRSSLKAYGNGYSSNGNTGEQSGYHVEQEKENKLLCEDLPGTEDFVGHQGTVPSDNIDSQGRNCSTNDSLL
T1 sequence (P20309 whole entry): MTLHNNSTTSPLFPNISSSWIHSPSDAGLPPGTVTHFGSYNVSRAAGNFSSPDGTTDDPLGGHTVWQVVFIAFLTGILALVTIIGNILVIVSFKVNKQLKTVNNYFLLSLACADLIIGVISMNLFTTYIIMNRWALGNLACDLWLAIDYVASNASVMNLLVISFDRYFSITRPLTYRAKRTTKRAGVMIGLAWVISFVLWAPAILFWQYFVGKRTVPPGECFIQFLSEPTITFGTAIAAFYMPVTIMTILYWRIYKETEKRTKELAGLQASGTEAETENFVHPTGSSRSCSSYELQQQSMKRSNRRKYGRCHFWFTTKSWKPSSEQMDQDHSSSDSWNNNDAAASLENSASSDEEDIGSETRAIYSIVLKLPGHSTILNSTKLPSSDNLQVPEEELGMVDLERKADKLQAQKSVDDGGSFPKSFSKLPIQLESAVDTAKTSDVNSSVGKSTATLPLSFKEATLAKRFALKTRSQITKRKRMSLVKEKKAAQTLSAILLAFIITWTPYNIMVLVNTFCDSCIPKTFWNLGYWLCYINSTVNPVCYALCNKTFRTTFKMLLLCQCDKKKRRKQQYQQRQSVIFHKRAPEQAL

Compound: O=C(c1ccc2cccnc2c1)N1CCOC2(CCN(Cc3cc(F)cc(CCNC[C@H](O)c4ccc(O)c5[nH]c(=O)sc45)c3)CC2)C1 [Example 178, (R)-7-(2-(3-fluoro-5-((4-(quinoline-7-carbonyl)-1-oxa-4,9-diazaspiro[5.5]undecan-9-yl)methyl)phenethylamino)-1-hydroxyethyl)-4-hydroxybenzo[d]thiazol-2(3H)-one]
- IC50 [1]: 31.6 nM
- activation at 1 µM [2]: 94%
- inhibition at 1 µM [3]: 89%
- EC50 [4]: 5.01 nM
- β2 Intrinsic activity [4]: 0.8

Compound: Cc1ccc(C(=O)N2CCOC3(CCN(CCCCCCCCCNC[C@H](O)c4ccc(O)c5[nH]c(=O)sc45)CC3)C2)o1 [Example 198, (R)-4-hydroxy-7-(1-hydroxy-2-(9-(4-(5-methylfuran-2-carbonyl)-1-oxa-4,9-diazaspiro[5.5]undecan-9-yl)nonylamino)ethyl)benzo[d]thiazol-2(3H)-one]
- IC50 [1]: 3.16 nM
- activation at 1 µM [2]: 82%
- inhibition at 1 µM [3]: 99%
- EC50 [4]: 12.6 nM
- β2 Intrinsic activity [4]: 0.8

Compound: O=C(c1cccc2cc[nH]c12)N1CCOC2(CCN(Cc3cc(F)cc(CCNC[C@H](O)c4ccc(O)c5[nH]c(=O)sc45)c3)CC2)C1 [Example 141, (R)-7-(2-(3-((4-(1H-indole-7-carbonyl)-1-oxa-4,9-diazaspiro[5.5]undecan-9-yl)methyl)-5-fluorophenethylamino)-1-hydroxyethyl)-4-hydroxybenzo[d]thiazol-2(3H)-one]
- IC50 [1]: 25.1 nM
- activation at 1 µM [2]: 105%
- inhibition at 1 µM [3]: 91%
- EC50 [4]: 6.31 nM
- β2 Intrinsic activity [4]: 0.9

Compound: O=C(c1csc(C2CCCC2)n1)N1CCOC2(CCN(CCCCCCCCCNC[C@H](O)c3ccc(O)c4[nH]c(=O)sc34)CC2)C1 [Example 221, (R)-7-(2-(9-(4-(2-cyclopentylthiazole-4-carbonyl)-1-oxa-4,9-diazaspiro[5.5]undecan-9-yl)nonylamino)-1-hydroxyethyl)-4-hydroxybenzo[d]thiazol-2(3H)-one]
- IC50 [1]: 1.26 nM
- activation at 1 µM [2]: 93%
- inhibition at 1 µM [3]: 99%
- EC50 [4]: 31.6 nM
- β2 Intrinsic activity [4]: 0.9

Source: patent US8148373B2, “Compounds” (AstraZeneca AB, priority 2008, dated 2012)
